These results are taken from patent US20200206257A1, “HOMOGENEOUS POLY[…]-B4, DERIVED FROM HERBA EPHEDRA, PREPARATION METHOD AND MEDICAL USE THEREOF” (priority 2018, published 2020).

“And” between values parts separate entries of the source, which are not always exact repeats. Equal entries are not always repeated.

Experiment [1] concerns LPS-induced acute lung injury in mice. Nature of the experiment: LPS-induced acute lung injury in mice, inflammatory factors in lung tissue homogenate. The class given is in vivo. The following applies: 50 mg/kg intraperitoneal, 7 days, left lung homogenate, mean±SD.
In experiment [2] the test system is Escherichia coli-induced pneumonia in mice. Nature of the experiment: Escherichia coli-induced pneumonia in mice, inflammatory factors in lung tissue homogenate. The following applies: 100 mg/kg intragastric (positive control), 7 days, left lung homogenate, mean±SD. It is filed as in vivo.

Turning to `C[C@@H]1C[C@H]2[C@@H]3CCC4=CC(=O)C=C[C@]4(C)[C@@]3(F)[C@@H](O)C[C@]2(C)[C@@]1(O)C(=O)CO` [Dexamethasone, dexamethasone], in experiment [1], the IL-6 stood at 255.18 ± 35.63 pg/mL, the IL-8 was determined as 52.7 ± 9.99 pg/mL, the TNF-α was 861.41 ± 71.04 pg/mL and the “Tp (Total protein)” value is 202.40 ± 16.54 µg/mL.
Turning to gentamicin sulfate [Gentamycin Sulfate], in experiment [2], the IL-6 amounted to 285.16 ± 32.71 pg/mL; the IL-8 turned out to be 49.36 ± 10.01 pg/mL; the TNF-α is listed as 834.10 ± 70.10 pg/mL; the Tp entry is “significantly decreased and 197.05 ± 14.20 μg/mL”. For the same molecule, in experiment [2] (listed as gentamicin sulfate), the IL-6 result is “significantly decreased”, the IL-8 entry was “significantly decreased” and the TNF-α entry is “significantly decreased”.
